“Also recorded” adds a separate entry of the source. Where two headings read alike, the source gives them in different places.

These results are taken from patent US8829014B2, “Thiazole and thiophene analogues, and their use in treating autoimmune diseases and cancers” (Board of Supervisors of Louisiana State University and …, priority 2006, dated 2014).

Test [1] deals with carageenan-induced edema. Briefly: Carrageenan-induced rat paw edema test (anti-inflammatory activity). Format: in vivo, Sprague-Dawley rats. The note with it: for inhibition in vivo at 50 mg/kg: po, 3 h, carrageenan-induced rat paw edema, defined in Example 397, read-out: % Protection. The method in brief: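 Edema was raised by sub-plantar injection of 1% carrageenan into the right hind paw, 1 h after dosing 18 h-fasted male/female Sprague-Dawley rats (150-250 g) with 50 mg/kg p.o. in 0.1% CMC. Swelling was measured by displacement 3 h later and expressed as % protection against saline control.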

In test [2] the test system is AP-1. The test is described as follows: AP-1 inhibitor screen: basal AP-1-dependent luciferase expression in HEK/AP-1 cell line. The note with it: for inhibition at 1 µM: AP1, determined as described in Example 398. The format is cell-based. The method in brief: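 Compound effects on unstimulated reporter signal were tested: 1.0 μM compound (0.3% DMSO) for 48 hr on HEK cells bearing an AP-1 (TGACTAA ×3)-luciferase construct, seeded 24 hr earlier. Triplicate luminescence means were normalized to DMSO-only wells; dose-response experiments were repeated 2–4 times.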

Test [3] deals with NF-κB. Briefly: NF-κB inhibitor screen: basal NF-κB-dependent luciferase expression in HEK/NF-κB cell line. The format is cell-based. The note with it: for inhibition at 1 µM: determined as described in Example 398, read-out: NFkB inhibition @ 1 uM; for inhibition of NF-κB (summary statement): summary in the disclosure. In a few lines:
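Basal NF-κB-driven luciferase (six-copy element, stable HEK293 line) was read with Brite-Glo. Compound was added in 0.3% DMSO 24 h post-plating, initially at 1.0 μM and then across 10–3300 nM in six steps, in triplicate wells. Signals were expressed relative to DMSO or to the lowest concentration tested.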

Test [4] deals with NF-κB. The test is described as follows: TNF-α-induced NF-κB-dependent luciferase expression in HEK cells. The format is cell-based. On the set-up: NF-κB % inhibition: concentration or dose not given beside the values.

For orientation: inhibition means the change of the read-out against control, counted positive when it falls. In the case of `COc1ccc(-n2c(-c3sc(Nc4ccc(Cl)cc4)nc3-c3ccccc3)nc3ccccc3c2=O)cc1` [Example 225, 2-[2-(4-Chloro-phenylamino)-4-phenyl-thiazol-5-yl]-3-(4-methoxyphenyl)-3H-quinazolin-4-one], in test [1], the inhibition in vivo at 50 mg/kg turned out to be 80%. In addition, the inhibition at 1 µM amounted to 58% in test [2] and 47% in test [3]. For the same molecule, in test [3], the “inhibition of NF-κB (summary statement)” value is “capable of inhibiting”.
Turning to `CNc1nc(C)c(-c2nc3ccccc3c(=O)n2-c2ccc(Cl)cc2)s1` [Example 244, 2-(4-Methyl-2-methylamino-thiazol-5-yl)-3-(4-chloro-phenyl)-3H-quinazolin-4-one], in test [1] (Rattus norvegicus), the inhibition in vivo at 50 mg/kg was 71%. This molecule showed an NF-κB % inhibition in test [4] (TNF-α-induced, compound added 1 h before inducer, luciferase 24 h later, normalized to DMSO vehicle) of 0%. Further, the inhibition at 1 µM in test [2] was 82%; in test [3], 93%.
The term IC50 denotes the midpoint of a concentration-inhibition curve. For “Bis-[2-(4-Chloro-phenylamino)-4-benzayl-thiazole-5-yl]-methanone [Example 134]”, the “% Protection P” value in test [1] (rat paw edema, 50 mg/kg, reading 3 hours after carrageenan, [(Control−Test)/Control]×100%) was found to be 75.69%. The IC50 in test [4] (20 ng/ml TNF-α, 24 hr (FIG. 15), read-out: IC50, TNF-α induced NF-κB gene expression) is less than 100 nM. Also, in test [4] (1 uM, luciferase in HEK/NF-κB cells, as described in Example 398), the “NFkB inhibition @ 1 uM” value worked out at 67.87. In addition, the “basal AP-1-dependent luciferase, six-point dose response” value in test [2] (10 nM-3300 nM (FIG. 14)) is recorded as “substantial activity at submicromolar concentrations”. For the same molecule, the “basal NF-κB-dependent luciferase, six-point dose response” value in test [3] (10 nM-3300 nM (FIG. 12), listed as Compound 35) is listed as “substantial activity at submicromolar concentrations; also recorded: robust inhibition”. The “inhibition of basal NF-κB-dependent luciferase expression” value in test [3] (3.3 μM (FIG. 12)) was “about 50%”. The “inhibition of NF-κB (summary statement)” value in test [3] is “capable of inhibiting”.
